Read-outs that look alike come from different tables or passages of the source.
Key:
[1] = test system: Maximal electroshock seizures; experiment: MES maximal electroshock seizure test, mice ip; format: in vivo; design: TPE (time of peak effect), activity: unit not given here; details: ip; for responders at 10 mg/kg: read-out: MES, animals protected/tested (converted); for responders at 300 mg/kg: read-out: MES, animals protected/tested
Protocol: Three tests were performed:
1. MES--Electroshock Seizure Test
(§1) Maximal electroshock seizures are elicited with a 60-cycle alternating current of 50 mA intensity (5-7 times that necessary to elicit minimal electroshock seizures) delivered via corneal electrodes for 0.2 seconds. A drop of 0.9% saline is instilled in the eye prior to application of the electrodes in order to […].

[2] = Neurotoxicity, rats ip; details: 100 mg/kg
Protocol: The rotorod test is used to elevate neurotoxicity. The animal is placed on a 1 inch diameter knurled plastic rod rotating at 6 rpm. […] Neurologic toxicity is defined as the failure of the animal to remain on the rod for 1 minute and the results are expressed as the number of animals protected/the number of animals tested.
The toxicity evaluation for the commercial agents as previously indicated was based on the onset of ataxia.

[3] = test system: Maximal electroshock seizures; experiment: Phase VI oral MES test, rats; format: in vivo; details: oral; for responders at 50 mg/kg: Rattus norvegicus, read-out: MES, animals protected/tested (converted)
Source text: as §1
(§2) This oral screen is designated as phase VI.

[4] = test system: Subcutaneous Pentylenetetrazol seizure; experiment: sc Met subcutaneous pentylenetetrazol (Metrazol) seizure test, mice; format: in vivo; details: Mus musculus, sc; for responders at 10 mg/kg: read-out: scMet, animals protected/tested; for responders at 300 mg/kg: read-out: scMet, animals protected/tested (converted)
Protocol: The first phase of the ADD Program involved performing tests on male Carworth Farms #1 mice. […] Three tests were performed:
2. sc Met--Subcutaneous Pentylenetetrazol (Metrazol^R) Seizure Test
The animal is observed for 30 minutes. Failure to observe even a threshold seizure (a single episode of clonic spasms of at least 5 seconds duration) is defined as protection and the results are expressed as the number of animals protected/the number of animals tested.

[5] = test system: Corneal Kindled rats; experiment: Corneal kindling; format: in vivo
Protocol: Corneal kindling studies were performed in our laboratories on 12 and 27 and the results are shown in Tables XI and XII and FIGS. 1A and 1B. Comparative data for the commercial products are included. Seizures evoked in electroshock-kindled rats provide a suitable model consistent with complex partial seizures evolving into generalized motor seizures in humans.
^a Rats kindled to Stage 5. Endpoint was reduction from Stage 5 to […]

[6] = test system: Amygdala Kindled Seizures; experiment: Suppression of amygdala kindled seizures; format: in vivo
Protocol: Compounds 12 and 27 were evaluated in our laboratory for suppression of amygdala kindled seizures.

[7] = test system: bicuculline; experiment: Phase V quantification against bicuculline; format: in vivo; details: 12.5, 25, 50 and 100 mg/kg
Protocol: (§3) Both 12 and 27 were evaluated in Phase V of the ADD Program evaluation scheme. Phase V provides quantification against bicuculline, picrotoxin, pentylenetetrazol, and strychnine. This screen provides information on the mechanism of action of the anticonvulsant activity. Bicuculline, picrotoxin, and strychnine correspond to GABA inhibitory function, chloride channel inhibition and inhibition by glycine respectively.

[8] = in vivo; details: mouse, in vivo, ip
[9] = in vivo; details: rat, po
Source text: as §2

[10] = test system: strychnine; experiment: Phase V quantification against strychnine; format: in vivo; details: 12.5, 25, 50 and 100 mg/kg
Protocol: as §3

[11] = test system: pentylenetetrazol; experiment: Phase V quantification against pentylenetetrazol; format: in vivo; details: 12.5, 25, 50 and 100 mg/kg
Protocol: as §3

[12] = test system: picrotoxin; experiment: Phase V quantification against picrotoxin; format: in vivo; details: 12.5, 25, 50 and 100 mg/kg
Protocol: as §3

[13] = test system: seizures; experiment: Anticonvulsant evaluation (ASP phase I / overall); format: in vivo, mice
Procedure, shortened: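 Male Carworth Farms #1 mice; maximal electroshock seizures elicited by 60-cycle AC, 50 mA, 0.2 s via corneal electrodes after a drop of 0.9% saline in the eye. Animals observed for 30 minutes.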

[14] = test system: electroshock seizures; experiment: MES maximal electroshock test, rats ip; format: in vivo; details: 100 mg/kg
Source text: as §1

[15] = Kase et al., Jap. J. Pharmacol. 1974; cited from earlier work

COC(=O)C1C(=O)C=C(NCc2ccccc2)CC1C (stereo not drawn) [Compound 12, Methyl 4-(benzyl)amino-6-methyl-2-oxocyclohex-3-en-1-oate]
responders at 10 mg/kg ([1]; Mus musculus, 0.5 h, 30 min): 66.7%
responders at 300 mg/kg ([1]; Mus musculus, 0.5 h, 30 min): 100%
responders at 10 mg/kg ([1]; Mus musculus, 4 h, 4 h): 0%
responders at 300 mg/kg ([1]; Mus musculus, 4 h, 4 h): 0%
ED50 ([1]; Mus musculus, Phase II, time of peak effect): 64.7 mg/kg
TPE (time of peak effect), activity ([1]; Phase II): 0.5
Tox, animals toxic/tested ([2]; 0.25 h (Table X)): 0/4
Tox, animals toxic/tested ([2]; 0.50 h (Table X)): 0/4
Tox, animals toxic/tested ([2]; 1.00 h (Table X)): 0/4
Tox, animals toxic/tested ([2]; 2.00 h (Table X)): 0/4
Tox, animals toxic/tested ([2]; 4.00 h (Table X)): 0/4
toxicity ([2]; ip, four hour evaluation): No toxicity was noted
ED50 ([3]; Phase VI, rat): 26.8 mg/kg
responders at 50 mg/kg ([3]; 0.5 h, 0.50 h): 100%
responders at 50 mg/kg ([3]; 0.25 h): 50%
responders at 50 mg/kg ([3]; 1.00 h): 75%
responders at 50 mg/kg ([3]; 2.00 h): 50%
responders at 50 mg/kg ([3]; 4.00 h): 50%
responders at 10 mg/kg ([4]; 0.5 h, 30 min): 10%
responders at 300 mg/kg ([4]; 0.5 h, 30 min): 0%
responders at 10 mg/kg ([4]; 4 h, 4 h): 10%
responders at 300 mg/kg ([4]; 4 h, 4 h): 0%
% Reduction ([5]; 50 mg/kg): 17%
% Reduction ([5]; 60 mg/kg): 23%
% Reduction ([5]; 75 mg/kg): 75%
ED50 ([5]; Rattus norvegicus, po, 0.5 h, read-out: ED50 (reduction from Stage 5 to Stage 4)): 41.9 mg/kg
Afterdischarge Amygdala: Duration ([6]; 500 mg/kg): 73.9 s
Afterdischarge Cortex: Duration ([6]; 500 mg/kg): 78.9 s
Afterdischarge Cortex: Latency ([6]; 500 mg/kg): 2.8 s
Behavioral Seizure: Duration ([6]; 500 mg/kg): 79.5 s
Behavioral Seizure: Latency ([6]; 500 mg/kg): 2.1 s
Forelimb Clonus: Duration ([6]; 500 mg/kg): 44.2 s
Forelimb Clonus: Latency ([6]; 500 mg/kg): 9.3 s
Seizure Stage ([6]; 500 mg/kg): 5.0
suppression of amygdala kindled seizures ([6]; in vivo): no significant activity
protection against bicuculline [7]: uniformly inactive
TD50 [8]: > 500 mg/kg
TPE (time of peak effect), toxicity [8]: 1
selectivity ratio [8]: 7.73
TD50 [9]: > 500 mg/kg
selectivity ratio [9]: 18.7
Tox, animals toxic/tested ([9]; 50 mg/kg): 0/4
protection against strychnine [10]: uniformly inactive
protection against pentylenetetrazol [11]: uniformly inactive
protection against picrotoxin [12]: uniformly inactive
minimal effective dose ([13]; Mus musculus, ip, Phase I, read-out: ASP Classification): < 100 mg/kg
anticonvulsant activity ([13]; mouse, in vivo): highly active
MES, animals protected/tested ([14]; 0.25 h (Table X)): 4/4
MES, animals protected/tested ([14]; 0.50 h (Table X)): 4/4
MES, animals protected/tested ([14]; 1.00 h (Table X)): 4/4
MES, animals protected/tested ([14]; 2.00 h (Table X)): 4/4
MES, animals protected/tested ([14]; 4.00 h (Table X)): 3/4

COc1cccc(C2=C(CN(C)CCc3ccccc3)C(=O)CC(C)(C)C2)c1 [MK 1-907, 5,5-dimethyl-3-(m-methoxy)phenyl-2-N-methyl-N-phenethylaminomethylcyclohex-2-ene-1-one]
pharmacological actions [15]: potent analgesics with morphine-like, as well as anticonvulsant and papaverine-like, actions

CC1(C)CC(=O)C(CN2CCCCC2)=C(Nc2ccccc2Cl)C1 [MK 1-203, 5,5-dimethyl-3-(o-chloro)phenylamino-2-(N-piperidinylmethyl)cyclohex-2-ene-1-one]
pharmacological actions [15]: potent analgesics with morphine-like, as well as anticonvulsant and papaverine-like, actions

Source: patent US5616615A, “Enaminone esters” (priority 1995, dated 1997)
